Reference: paper PMC6934184, “Selective DNA-PKcs inhibition extends the therapeutic index of localized radiotherapy and chemotherapy” (The Journal of Clinical Investigation, 2019)

Target: DNA-PK (Homo sapiens, UniProt P78527)
Experiment: SelectScreen Z'LYTE
Type: biochemical
Design: purchased Thermo Fisher Scientific (Life Technologies) SelectScreen
Details: ATP Km app
Description: The in vitro kinase selectivity of NU5455 was determined using the SelectScreen Broad Assay Panel (Thermo Fisher Scientific) involving activity and binding assays (Supplemental Table 1). […] Class IA PI3Ks were measured using the p85α subunit.
Kinase [ATP] % Assay Kinase [ATP] % Assay Kinase [ATP] % Assay Kinase [ATP] % Assay
DNA-PK Km app 98.3 Z LATS2 n/a 4.7 L KIT D820E n/a 1.3 L GSK3B (GSK3 beta) Km app -2.5 Z
PIK3C3 (hVPS34) Km app 85.9 A PRKCZ (PKC zeta) Km app 4.7 Z GRK1 n/a 1.3 L BMPR2 n/a -2.5 L
PIK3C2B (PI3K-C2 beta) 10 28.9 A FGFR1 Km app 4.7 Z BRSK2 n/a 1.2 L CDC42 BPB (MRCKB) Km app -2.5 Z
SNF1LK2 Km app 26.6 Z MINK1 Km app 4.6 Z NUAK1 (ARK5) Km app 1.2 A AMPK (A2/B2/G2) n/a -2.6 L
HCK Km app 18.0 Z CSF1R (FMS) Km app 4.3 Z CDK9/cyclin K n/a 1.0 L PRKG1 Km app -2.7 Z
NEK2 Km app 17.8 Z CSNK1G3 (CK1 gamma 3) Km app 4.2 Z NUAK2 n/a 1.0 L KIT T670E n/a -2.8 L
ALK Km app 17.3 Z STK32C (YANK3) n/a 4.2 L CDK2/cyclin O n/a 0.9 L ERBB4 (HER4) Km app -2.8 Z
FGFR3 K650M n/a 16.5 L STK22D (TSSK1) Km app 4.2 Z CAMKK2 (CaMKK beta) n/a 0.9 L PLK4 n/a -2.8 L
SIK3 n/a 16.1 L TAOK3 (JIK) n/a 4.2 L FGFR3 Km app 0.9 Z GRK7 Km app -3.0 Z
LYN A Km app 15.2 Z RPS6KA4 (MSK2) Km app 4.2 Z ULK2 n/a 0.9 L MAPKAPK2 Km app -3.1 Z
BMPR1B (ALK6) n/a 14.5 L PTK2B (FAK2) Km app 4.2 Z KIT D816V n/a 0.9 L FGFR4 Km app -3.1 Z
INSRR (IRR) Km app 14.1 Z CLK2 Km app 4.1 Z CAMK1 (CaMK1) 10 0.8 A CASK n/a -3.1 L […]

Compound: CN(C(=O)CN1CCOCC1)c1ccc2sc3c(-c4cccc5c(=O)cc(N6CC7CCC(C6)O7)oc45)cccc3c2c1 [NU5455]
- % inhibition (1 µM): 98%
- inhibition at 1 µM: 98.3%
